Measured values reported in patent US6172097A, “Spiro imidazoline compounds” (Adir et Compagnie, priority 1998, dated 2001).
pKi: −log10 of the molar value.

How the values were obtained:
[1] = biological target: T1, noradrenaline reuptake sites (Rattus norvegicus, UniProt Q63380); assay: Affinity for noradrenaline reuptake sites in the rat, competition with [3H]-nisoxetine on frontal cortex membranes; type: binding; details: 2 nM [3H]-nisoxetine, 4 hours at 4° C, pH 7.4
T1 construct: The membranes are prepared from the frontal cortex of the rat; from tissue; host or cells: rat frontal cortex membranes
T1 sequence (Q63380 1-617): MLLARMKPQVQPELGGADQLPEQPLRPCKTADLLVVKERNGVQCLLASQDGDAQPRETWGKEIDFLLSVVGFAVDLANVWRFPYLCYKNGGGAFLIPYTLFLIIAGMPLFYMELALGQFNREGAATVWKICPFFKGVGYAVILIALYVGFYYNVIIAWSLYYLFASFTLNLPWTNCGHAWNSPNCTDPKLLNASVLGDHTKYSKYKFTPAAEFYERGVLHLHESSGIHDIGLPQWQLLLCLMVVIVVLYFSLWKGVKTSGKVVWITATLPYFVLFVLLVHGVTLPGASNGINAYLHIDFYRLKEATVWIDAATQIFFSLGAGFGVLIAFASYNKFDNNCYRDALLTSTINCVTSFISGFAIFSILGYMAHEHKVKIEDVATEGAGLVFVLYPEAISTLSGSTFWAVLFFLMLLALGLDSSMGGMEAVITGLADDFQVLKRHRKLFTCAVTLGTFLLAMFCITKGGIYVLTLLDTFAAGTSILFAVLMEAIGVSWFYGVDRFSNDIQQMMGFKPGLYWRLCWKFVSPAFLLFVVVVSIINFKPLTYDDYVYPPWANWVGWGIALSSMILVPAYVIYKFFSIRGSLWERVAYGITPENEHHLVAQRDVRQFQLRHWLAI
Method: Determination of the Affinity For Noradrenaline Reuptake Sites in the Rat
The affinity was determined by competition experiments with [^3 H]-nisoxetine. The membranes are prepared from the frontal cortex of the rat and are incubated in triplicate with 2 nM [^3 H]-nisoxetine and the product to be tested in a final volume of 0.5 ml, for 4 hours at 4° C. The incubation buffer contains 50 mM TRIS-HCl (pH 7.4), 120 mM NaCl and 5 mM KCl. The non-specific binding is determined using 10 μM desipramine.
(§1) At the end of incubation, the incubation medium is filtered through WHATMAN GF/B filters impregnated with 0.1% of polyethyleneimine, and washed three times with 5 ml of cooled buffer. The radioactivity retained on the filters is determined by liquid scintillation counting. The binding isotherms are analysed by non-linear regression.

serotonin reuptake sites = biological target: T2, serotonin reuptake sites (Rattus norvegicus, UniProt P31652); assay: Affinity for serotonin reuptake sites in the rat, competition with [3H]-paroxetine on frontal cortex membranes; type: binding; details: 0.25 nM [3H]-paroxetine, 2 hours at 25° C, pH 7.4
T2 construct: The membranes are prepared from the frontal cortex of the rat; from tissue; host or cells: rat frontal cortex membranes
T2 sequence (P31652 whole entry): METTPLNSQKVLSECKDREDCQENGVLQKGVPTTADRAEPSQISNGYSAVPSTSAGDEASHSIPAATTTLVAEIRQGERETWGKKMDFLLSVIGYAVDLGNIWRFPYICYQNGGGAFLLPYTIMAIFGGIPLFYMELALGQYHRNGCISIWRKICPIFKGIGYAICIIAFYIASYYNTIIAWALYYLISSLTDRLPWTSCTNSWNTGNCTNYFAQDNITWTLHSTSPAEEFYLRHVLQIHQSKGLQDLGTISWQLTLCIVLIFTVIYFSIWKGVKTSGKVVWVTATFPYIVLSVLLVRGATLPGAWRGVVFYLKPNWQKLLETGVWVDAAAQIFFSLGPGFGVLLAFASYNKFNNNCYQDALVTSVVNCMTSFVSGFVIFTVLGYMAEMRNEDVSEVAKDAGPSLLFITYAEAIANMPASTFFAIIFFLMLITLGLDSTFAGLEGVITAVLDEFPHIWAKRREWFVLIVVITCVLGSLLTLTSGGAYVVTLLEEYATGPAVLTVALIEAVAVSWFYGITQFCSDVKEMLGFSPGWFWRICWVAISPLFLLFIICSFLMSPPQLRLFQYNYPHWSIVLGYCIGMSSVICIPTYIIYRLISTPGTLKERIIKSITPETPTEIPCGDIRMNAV
Method: Determination of the Affinity For Serotonin Reuptake Sites in the Rat
The affinity was determined by competition experiments with [^3 H]-paroxetine. The membranes are prepared from the frontal cortex of the rat and are incubated in triplicate with 0.25 nM [^3 H]-paroxetine and the cold ligand in a final volume of 0.4 ml, for 2 hours at 25° C. The incubation buffer contains 50 mM TRIS-HCl (pH 7.4), 120 mM NaCl and 5 mM KCl. The non-specific binding is determined using 10 μM citalopram.
as §1

α2-adrenergic receptors = biological target: T3, α2-adrenergic receptors (Rattus norvegicus, UniProt P22909); assay: Affinity for α2-adrenergic receptors in the rat, competition with [3H]-RX 821,002 on cerebral cortex membranes; type: binding; details: 0.4 nM [3H]-RX 821,002, 60 minutes at 22° C, pH 7.5
T3 construct: The membranes are prepared from the cerebral cortex of the rat; from tissue; host or cells: rat cerebral cortex membranes
T3 sequence (P22909 1-465): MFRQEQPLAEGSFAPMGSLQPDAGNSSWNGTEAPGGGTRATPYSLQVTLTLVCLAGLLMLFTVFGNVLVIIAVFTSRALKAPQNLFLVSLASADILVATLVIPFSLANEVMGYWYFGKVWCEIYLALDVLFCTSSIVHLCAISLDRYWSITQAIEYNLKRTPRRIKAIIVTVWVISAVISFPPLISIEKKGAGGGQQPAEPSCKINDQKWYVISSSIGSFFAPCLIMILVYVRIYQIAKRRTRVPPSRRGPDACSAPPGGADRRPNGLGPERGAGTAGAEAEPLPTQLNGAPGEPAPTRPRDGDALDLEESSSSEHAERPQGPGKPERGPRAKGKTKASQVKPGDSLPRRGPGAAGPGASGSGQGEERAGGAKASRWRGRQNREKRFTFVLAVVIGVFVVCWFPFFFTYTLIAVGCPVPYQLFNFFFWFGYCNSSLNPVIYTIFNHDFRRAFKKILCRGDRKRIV
Method: Determination of the Affinity For α2 -Adrenergic Receptors in the Rat
The affinity was determined by competition experiments with [^3 H]-RX 821,002. The membranes are prepared from the cerebral cortex of the rat and are incubated in triplicate with 0.4 nM [^3 H]-RX 821,002 and the product to be tested in a final volume of 1.0 ml, for 60 minutes at 22° C. The incubation buffer contains […] TRIS-HCl (pH 7.5), 1 mM EDTA and 100 μM GppNHp. The non-specific binding is determined using 10 μM phentolamine.
as §1

monoamine reuptake = details: described in U.S. Pat. No. 5,017,584; cited from earlier work
α2-adrenergic = details: described in U.S. Pat. No. 5,017,584; cited from earlier work

| Compound | pKi [1] | pKi (serotonin reuptake sites) | pKi (α2-adrenergic receptors) | monoamine reuptake-blocking activity (in words) (monoamine reuptake) | α2-adrenergic antagonist activity (in words) (α2-adrenergic) |
| --- | --- | --- | --- | --- | --- |
| C1=NC[C@@]2(CC[C@@H]3Cc4ccccc4C[C@H]3C2)N1 (relative stereo) [Example 1, Spiro[(1,3-diazacyclopent-1-ene)-5: 2'(S)-(trans-1',2',3',4',4'a(R),9',9'a(S),10'-octahydroanthracene)]fumarate and spiro [(1,3-diazacyclopent-1-ene)-5: 2'(R)-(trans-1',2',3',4',4'a(S),9',9'a(R),10'-octahydroanthracene)]fumarate] | 6.70 | 7.80 | 8.00 | – | – |
| C1=C(CC2=NCCN2)CCc2ccccc21 [napamezole] | – | – | – | monoamine reuptake-blocking activity | α2-adrenergic antagonist activity |
